ChEMBL document CHEMBL2424635, “Discovery of novel histidine-derived lipo-amino acids: applied in the synthesis of ultra-short antimicrobial peptidomimetics having potent antimicrobial activity, salt resistance and protease stability” (Eur J Med Chem, 2013)
Converted amounts (≈) assume the structure as drawn. The source made the active and inactive calls. The calls are words filed in the database; no cut-off is given here.

Legend:
[1] = system: Staphylococcus aureus; assay: Antibacterial activity against Staphylococcus aureus KCTC 1621 assessed as growth inhibition at 50 ug/ml after 18 to 20 hrs by broth microdilution method in presence of trypsin; format: functional, organism-based
[2] = system: Escherichia coli; assay: Antibacterial activity against Escherichia coli KCTC 1682 assessed as growth inhibition at 50 ug/ml after 18 to 20 hrs by broth microdilution method in presence of trypsin; format: functional, organism-based
[3] = system: Staphylococcus epidermidis; assay: Antibacterial activity against Staphylococcus epidermidis KCTC 1917 assessed as growth inhibition after 18 to 20 hrs by broth microdilution method; format: functional
[4] = system: Staphylococcus aureus; assay: Antibacterial activity against methicillin-resistant Staphylococcus aureus CCARM 3095 assessed as growth inhibition after 18 to 20 hrs by broth microdilution method; format: functional
[5] = Hemolytic activity in human RBC assessed as hemoglobin release after 1 hr; format: ADME, cell-based, Erythrocyte; settings: red blood cells (RBC)
[6] = system: Escherichia coli; assay: Antibacterial activity against Escherichia coli KCTC 1682 assessed as growth inhibition after 18 to 20 hrs by broth microdilution method in presence of NaCl; format: functional
[7] = system: Staphylococcus aureus; assay: Antibacterial activity against Staphylococcus aureus KCTC 1621 assessed as growth inhibition after 18 to 20 hrs by broth microdilution method; format: functional
[8] = system: Escherichia coli; assay: Antibacterial activity against Escherichia coli KCTC 1682 assessed as growth inhibition after 18 to 20 hrs by broth microdilution method; format: functional
[9] = system: Staphylococcus aureus; assay: Antibacterial activity against Staphylococcus aureus KCTC 1621 assessed as growth inhibition after 18 to 20 hrs by broth microdilution method in presence of NaCl; format: functional
[10] = system: Bacillus subtilis; assay: Antibacterial activity against Bacillus subtilis KCTC 3068 assessed as growth inhibition after 18 to 20 hrs by broth microdilution method in presence of NaCl; format: functional
[11] = system: Salmonella typhimurium; assay: Antibacterial activity against Salmonella typhimurium KCTC 1926 assessed as growth inhibition after 18 to 20 hrs by broth microdilution method; format: functional, Salmonella enterica subsp. enterica serovar Typhimurium; settings: Salmonella enterica
[12] = system: Pseudomonas aeruginosa; assay: Antibacterial activity against Pseudomonas aeruginosa KCTC 1637 assessed as growth inhibition after 18 to 20 hrs by broth microdilution method; format: functional
[13] = system: Staphylococcus aureus; assay: Antibacterial activity against methicillin-resistant Staphylococcus aureus CCARM 3089 assessed as growth inhibition after 18 to 20 hrs by broth microdilution method; format: functional
[14] = system: Salmonella typhimurium; assay: Antibacterial activity against Salmonella typhimurium KCTC 1926 assessed as growth inhibition after 18 to 20 hrs by broth microdilution method in presence of NaCl; format: functional, Salmonella enterica subsp. enterica serovar Typhimurium; settings: Salmonella enterica
[15] = system: Bacillus subtilis; assay: Antibacterial activity against Bacillus subtilis KCTC 3068 assessed as growth inhibition after 18 to 20 hrs by broth microdilution method; format: functional
[16] = system: Pseudomonas aeruginosa; assay: Antibacterial activity against Pseudomonas aeruginosa KCTC 1637 assessed as growth inhibition after 18 to 20 hrs by broth microdilution method in presence of NaCl; format: functional
[17] = system: Staphylococcus epidermidis; assay: Antibacterial activity against Staphylococcus epidermidis KCTC 1917 assessed as growth inhibition after 18 to 20 hrs by broth microdilution method in presence of NaCl; format: functional
[18] = system: Staphylococcus aureus; assay: Antibacterial activity against methicillin-resistant Staphylococcus aureus CCARM 3090 assessed as growth inhibition after 18 to 20 hrs by broth microdilution method; format: functional
[19] = system: Staphylococcus aureus; assay: Antibacterial activity against Staphylococcus aureus KCTC 1621 assessed as disruption of cellular structure at 3 x MIC after 1 hr by transmission electron microscopic analysis; format: functional, organism-based
[20] = system: Escherichia coli; assay: Antibacterial activity against Escherichia coli KCTC 1682 assessed as disruption of cellular structure at 3 x MIC after 1 hr by transmission electron microscopic analysis; format: functional, organism-based

Compound	growth inhibition (GI) [1]	growth inhibition (GI) [2]	MIC [3]	MIC [4]	HC50 at 1 h [5]	MIC [6]	MIC [7]	MIC [8]	MIC [9]	MIC [10]	MIC [11]	MIC [12]	MIC [13]	MIC [14]	MIC [15]	MIC [16]	MIC [17]	MIC [18]	Activity [19]	Activity [20]
CC[C@H](C)[C@H](NC(=O)CN)C(=O)NCC(=O)N[C@@H](C)C(=O)N[C@H](C(=O)N[C@@H](CC(C)C)C(=O)N[C@@H](CCCCN)C(=O)N[C@H](C(=O)N[C@@H](CC(C)C)C(=O)N[C@H](C(=O)N[C@H](C(=O)NCC(=O)N[C@@H](CC(C)C)C(=O)N1CCC[C@H]1C(=O)N[C@@H](C)C(=O)N[C@@H](CC(C)C)C(=O)N[C@H](C(=O)N[C@@H](CO)C(=O)N[C@@H](Cc1c[nH]c2ccccc12)C(=O)N[C@H](C(=O)N[C@@H](CCCCN)C(=O)N[C@@H](CCCNC(=N)N)C(=O)N[C@@H](CCCCN)C(=O)N[C@@H](CCCNC(=N)N)C(=O)N[C@@H](CCC(N)=O)C(=O)N[C@@H](CCC(N)=O)C(N)=O)[C@@H](C)CC)[C@@H](C)CC)[C@@H](C)O)[C@@H](C)O)C(C)C)C(C)C	inactive	inactive																		
CC[C@H](C)[C@H](NC(=O)[C@H](CCCCN)NC(=O)[C@H](CCC(=O)O)NC(=O)[C@H](CCCCN)NC(=O)[C@H](CO)NC(=O)[C@H](CCCCN)NC(=O)[C@H](CCCNC(=N)N)NC(=O)[C@H](Cc1ccccc1)NC(=O)[C@H](Cc1ccccc1)NC(=O)[C@H](CC(=O)O)NC(=O)CNC(=O)[C@H](CC(C)C)NC(=O)[C@@H](N)CC(C)C)C(=O)NCC(=O)N[C@@H](CCCCN)C(=O)N[C@@H](CCC(=O)O)C(=O)N[C@@H](Cc1ccccc1)C(=O)N[C@@H](CCCCN)C(=O)N[C@@H](CCCNC(=N)N)C(=O)N[C@H](C(=O)N[C@H](C(=O)N[C@@H](CCC(N)=O)C(=O)N[C@@H](CCCNC(=N)N)C(=O)N[C@H](C(=O)N[C@@H](CCCCN)C(=O)N[C@@H](CC(=O)O)C(=O)N[C@@H](Cc1ccccc1)C(=O)N[C@@H](CC(C)C)C(=O)N[C@@H](CCCNC(=N)N)C(=O)N[C@@H](CC(N)=O)C(=O)N[C@@H](CC(C)C)C(=O)N[C@H](C(=O)N1CCC[C@H]1C(=O)N[C@@H](CCCNC(=N)N)C(=O)N[C@H](C(=O)N[C@@H](CCC(=O)O)C(=O)N[C@@H](CO)C(N)=O)[C@@H](C)O)C(C)C)[C@@H](C)CC)C(C)C)[C@@H](C)CC	inactive	inactive	16 µg/mL (≈ 3.56 µM)	> 32 µg/mL	> 256 µg/mL	16 µg/mL	32 µg/mL (≈ 7.12 µM)	32 µg/mL (≈ 7.12 µM)	> 64 µg/mL	16 µg/mL	16 µg/mL (≈ 3.56 µM)	64 µg/mL (≈ 14.2 µM)	> 32 µg/mL	32 µg/mL	32 µg/mL (≈ 7.12 µM)	64 µg/mL	> 64 µg/mL	> 32 µg/mL		
CCCCCCCn1c[n+](CCCCCCC)cc1C[C@H](NC(=O)[C@@H](N)CCCNC(=N)N)C(=O)N[C@@H](CCCNC(=N)N)C(N)=O	Active	Active	2 µg/mL	4 µg/mL	> 256 µg/mL	> 32 µg/mL	4 µg/mL	4 µg/mL	8 µg/mL	8 µg/mL	8 µg/mL	8 µg/mL	4 µg/mL	32 µg/mL	2 µg/mL	8 µg/mL	16 µg/mL	8 µg/mL	Active	Active
CCCCCCCCCCn1c[n+](CCCCCCCCCC)cc1C[C@H](NC(=O)[C@H](CCCNC(=N)N)NC(=O)[C@@H](N)CCCNC(=N)N)C(N)=O	Active	Active	8 µg/mL	8 µg/mL	116 µg/mL	16 µg/mL	8 µg/mL	16 µg/mL	4 µg/mL	4 µg/mL	8 µg/mL	8 µg/mL	8 µg/mL	16 µg/mL	8 µg/mL	8 µg/mL	4 µg/mL	8 µg/mL	Active	Active
CCCCCCCCCCn1cncc1C[C@H](NC(=O)[C@@H](N)CCCNC(=N)N)C(=O)N[C@@H](CCCNC(=N)N)C(N)=O	Active	Active	2 µg/mL (≈ 3.3 µM)	8 µg/mL (≈ 13.2 µM)	> 256 µg/mL	> 64 µg/mL	4 µg/mL (≈ 6.59 µM)	16 µg/mL (≈ 26.4 µM)	32 µg/mL	8 µg/mL	32 µg/mL (≈ 52.7 µM)	16 µg/mL (≈ 26.4 µM)	8 µg/mL (≈ 13.2 µM)	> 64 µg/mL	2 µg/mL (≈ 3.3 µM)	16 µg/mL	32 µg/mL	8 µg/mL (≈ 13.2 µM)		
